Reference: US20040038920A1, “Chlamydial peptides and their mimics in demyelinating disease” (priority 2003, published 2004)

Tests used:
Lewis rats = assay: Induction of EAE in Lewis rats by immunization with peptide in CFA; assay type: in vivo, rat; conditions: for EAE Incidence (# affected animals/total # animals injected) / EAE severity score (in parentheses): Table IV, dose not given; for EAE Severity (mean group severity, max. = 3.0) / EAE Incidence: Lewis rats; for EAE severity score (in parentheses): max. = 3.0; for Encephalitogenic activity in LEW rats (in words): peptide in CFA, s.c.
Experimental: Peptides were administered subcutaneously to LEW rats at 5 μg or 50 μg doses in the standard manner. Eight- to twelve-week-old female Lewis rats (purchased from Charles River, Raleigh, N.C.) were immunized subcutaneously at the hind footpad with the appropriate synthetic peptide, emulsified in complete Freund's adjuvant (CFA, Difco, Detroit, Mich.). […] Animals were followed for 21 days post-immunization. Hematoxylin-eosin-stained and toluidine blue-stained spinal cord sections from representative rats were examined for inflammatory cell infiltration and demyelination without knowledge of the group of origin.

[1] = system: T cells from rats immunized with the chlamydial peptide; assay: T cell proliferation assay (3H-thymidine), Cpn0483-primed T cells; assay type: cell-based, rat; conditions: for Proliferation of peptide-primed T cells in response to irrelevant peptide: specificity control, priming peptide not specified; for Proliferative response of Cpn0483-primed T cells to peptide: 96 hr culture with irradiated thymocytes as APCs, FIG. 3
Experimental: (§1) To further investigate the immunopathology underlying the clinical observations, T cells were isolated from the spleens of rats immunized with Cpn0483 or MBP68-86, and recall responses were assessed using standard T cell proliferation assays.
(§2) Briefly, splenocytes were isolated from peptide-primed rats, adherent cells were removed by culture on plastic Petri dishes, and T cells were isolated on T cell columns (Biotec, Edmonton, Canada). The T cells were cultured for 96 hr with irradiated (2000rad) syngeneic thymocytes as antigen presenting cells (APCs), and peptide, in 96-well flat-bottom microtiter plates. The cultures were pulsed with ^3H-thymidine (0.5 μCi/well) 18 hr prior to harvesting cells, and 3H-thymidine incorporation was measured in a liquid scintillation counter (Wallac 1450 Microbeta Plus, Gaithersburg, Md.). Cultures were run in quadruplicate and each experiment was repeated at least twice. Dose-response studies were performed using various peptides at differing concentrations, and representative results are presented.

[2] = system: syngeneic recipients (LEW rats); assay: Transfer of EAE with peptide-activated spleen cells from Cpn0483-immunized rats; assay type: in vivo, rat; conditions: Cpn0483-primed spleen cells activated in vitro with the named peptide for 72 hr
Experimental: Both are characteristic pathological findings in the rat model of EAE (Zamvil et al., supra; Swanborg, 1995, supra) and are also observed in MS (Raine et al., 1999, supra). […] This feature is prominent in MS, but is not characteristic of acute EAE in LEW rats. When spleen cells were prepared from Cpn0483-immunized LEW rats with EAE and activated in vitro with the same peptide for 72 hr, they transferred clinical disease to 6 of 9 syngeneic recipients. Six of 9 recipients of Cpn-primed spleen cells activated with MBP68-86 also developed clinical EAE. Mononuclear infiltration was present in the spinal cords of recipients with clinical disease, as expected.

[3] = system: T cells derived from rats immunized with rat MBP68-86; assay: T cell proliferation assay (3H-thymidine), rat MBP68-86-primed T cells; assay type: cell-based; conditions: 96 hr culture with irradiated thymocytes as APCs, FIG. 4
Experimental: as §1, §2

[4] = system: short-term T cell line from Cpn0483 peptide-immunized rats; assay: Cytokine secretion by short-term T cell line (ELISA); assay type: cell-based, rat; conditions: activated for 72 hr with the chlamydial peptide
Description: It has been well established that EAE in rodents is mediated by IFN-γ-producing Th1 inflammatory cells ((Zamvil et al., supra; Swanborg, supra; R. B. Smeltz et al., J. Immunol. 162, 829 (1999)).

[5] = 5 μg peptide s.c. in CFA, affected/total
[6] = 50 μg peptide s.c. in CFA, Table 2
[7] = 50 μg peptide s.c. in CFA, affected/total, Table 2
[8] = groups given either dose (5 μg or 50 μg)

Row | Substance | EAE Incidence (# affected animals/total # animals injected) (Lewis rats) | EAE Incidence (Lewis rats; Incidence at 50 μg, Table 3) | EAE severity score (in parentheses) (Lewis rats) | Encephalitogenic activity in LEW rats (in words) (Lewis rats) | EAE Severity (mean group severity, max. = 3.0) (Lewis rats; [6]) | EAE Incidence (Lewis rats; [7]) | further results
1 | HYGCLLPRNPRTED (listed as Chlamydia pneumoniae) [N4/C2 truncated] | 0/5 |  |  |  |  |  | 
2 | MBP11-30: irrelevant nonencephalitogenic peptide (SAEKASKDGEIHRGEAGKKR; UniProt P04370 11-30, looked up, fragment) |  |  |  |  |  |  | Proliferation of peptide-primed T cells in response to irrelevant peptide [1]: lack of proliferation
3 | MBP31-50: irrelevant nonencephalitogenic peptide (SVGKLSQTASEDSDVFGEAD; UniProt P04370 31-50, looked up, fragment) |  |  |  |  |  |  | Proliferation of peptide-primed T cells in response to irrelevant peptide [1]: lack of proliferation
4 | NHYGCLLPRNPRTED (listed as Chlamydia pneumoniae) [N3/C2 truncated] | 0/5 |  |  |  |  |  | 
5 | PNHYGCLLPRNPRTEDQN (listed as Chlamydia pneumoniae) [N2—truncated] | 0/5 |  |  |  |  |  | 
6 | RFPNHYGCLLPRNPR (listed as Chlamydia pneumoniae) [C5—truncated] | 0/5 |  |  |  |  |  | 
7 | RFPNHYGCLLPRNPRTEAQN (listed as Chlamydia pneumoniae) [Cpn D>A] | 9/10 | 9/10 | 2.7 | elicited severe EAE |  |  | EAE Severity (mean group severity, max. = 3.0) (Lewis rats; 50 μg, Table 3): 2.7
8 | RFPNHYGCLLPRNPRTEDQN (listed as Chlamydia pneumoniae) [Cpn0483, 20-mer peptide near the C-terminus of C. pneumoniae protein Cpn0483] | 5/5 | 5/5 | 3.0 | encephalitogenic | 2.3 | 14/15 | EAE Severity (mean group severity, max. = 3.0) (Lewis rats; 5 μg peptide s.c. in CFA): 1.8; EAE Incidence (Lewis rats; [5]): 3/5; EAE Severity (mean group severity, max. = 3.0) (Lewis rats; 50 μg, Table 3): 3.0; Demyelination in spinal cord sections (Lewis rats; Luxol fast blue-stained sections): Significant demyelination was not observed; Initial clinical signs of EAE, time post-immunization (Lewis rats; [8]): approximately 12 days; Persistence of clinical signs of EAE (Lewis rats; [8]): 3 to 6 days; Encephalitogenic activity in LEW rats (in words) (Lewis rats; listed as chlamydial peptide): as effective as guinea pig or rat MBP68-86 peptide in causing paralysis; Spinal cord inflammatory cell infiltration (histology) (Lewis rats; spinal cords of immunized rats): Extensive perivascular cuffing and parenchymal mononuclear cell infiltration; Recipients developing clinical EAE after cell transfer [2]: 6 of 9; Proliferative response of Cpn0483-primed T cells to peptide [1]: respond to priming peptide; Proliferative response of Cpn0483-primed T cells to peptide ([1]; listed as chlamydial peptide): responded vigorously; Proliferative response of rat MBP68-86-primed T cells to peptide [3]: cross-reacted only minimally; Proliferative response of rat MBP68-86-primed T cells to peptide ([3]; listed as chlamydial peptide): cross-react; IFN-γ secreted [4]: 7,000 pg/ml; IL-4 production [4]: did not produce detectable IL-4
9 | RFPNHYGSLLPRNPRTEDQN (listed as Chlamydia pneumoniae) [Cpn0483 C > S] | 8/10 |  | 2.4 | lack of effect | 2.2 | 4/5 | EAE Severity (mean group severity, max. = 3.0) (Lewis rats; 5 μg peptide s.c. in CFA): 2.4; EAE Incidence (Lewis rats; [5]): 4/5
10 | YGCLLPRNPRTEDQN (listed as Chlamydia pneumoniae) [N5—truncated] | 0/5 |  |  |  |  |  | 
11 | YGSLPQKSORTQAENPV (YGSLPQKSQRSQAENPV; listed as Rattus sp.) [MBP D>A, reference compound] |  | 0/10 |  | abolished encephalitogenic activity |  |  | 
12 | YGSLPQKSQRSQDENPV (Guinea pig) [gp68-86, guinea pig myelin basic protein peptide 68-86, reference compound] |  |  |  | induced clinical disease with comparable severity and time course | 3.0 | 5/5 | 
13 | YGSLPQKSQRTQDENPV (listed as Rattus sp.) [rat68-86, rat myelin basic protein peptide 68-86, reference compound] | 5/5 | 5/5 | 3.0 | induced clinical disease with comparable severity and time course | 2.7 | 10/10 | EAE Severity (mean group severity, max. = 3.0) (Lewis rats; 50 μg, Table 3): 3.0; Recipients developing clinical EAE after cell transfer [2]: Six of 9; Proliferative response of Cpn0483-primed T cells to peptide ([1]; listed as rat MBP68-86): responded significantly; Proliferative response of Cpn0483-primed T cells to peptide ([1]; listed as ratMBP68-86): cross-react; Proliferative response of rat MBP68-86-primed T cells to peptide ([3]; listed as rat MBP68-86): proliferated vigorously; Proliferative response of rat MBP68-86-primed T cells to peptide ([3]; listed as ratMBP68-86): respond to priming peptide
